Experiments:
Assay type in all cases: cell-based
[1] = molecular target: T1, ERα (Homo sapiens, UniProt P03372); assay: ERα degradation in T-47D cells (Western blot); details: 4 hours
T1 sequence (P03372 1-595): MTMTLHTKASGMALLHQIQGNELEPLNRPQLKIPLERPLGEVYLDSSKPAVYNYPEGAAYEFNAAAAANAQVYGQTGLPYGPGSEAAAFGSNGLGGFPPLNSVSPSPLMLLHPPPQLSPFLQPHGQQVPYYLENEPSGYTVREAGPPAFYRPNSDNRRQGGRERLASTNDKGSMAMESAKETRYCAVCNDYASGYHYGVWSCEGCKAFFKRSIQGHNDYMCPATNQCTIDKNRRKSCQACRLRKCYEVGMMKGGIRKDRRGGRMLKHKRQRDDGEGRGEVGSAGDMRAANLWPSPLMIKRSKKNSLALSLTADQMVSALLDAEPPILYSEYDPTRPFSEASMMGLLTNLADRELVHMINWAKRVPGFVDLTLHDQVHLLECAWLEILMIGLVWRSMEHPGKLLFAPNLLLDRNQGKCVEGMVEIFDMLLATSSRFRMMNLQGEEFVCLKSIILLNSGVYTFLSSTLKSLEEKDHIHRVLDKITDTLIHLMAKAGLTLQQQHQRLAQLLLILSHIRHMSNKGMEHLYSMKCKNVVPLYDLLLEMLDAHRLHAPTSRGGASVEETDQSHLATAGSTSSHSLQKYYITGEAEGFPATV
Procedure, shortened: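 T-47D cells at 3×10^5 cells/well were exposed to compound (final 0.15-1000 nM, DMSO) for 4 hours at 37°C and then lysed in RIPA. ERα was measured by Western blot (20 µg protein) with infrared imaging. The degradation rate was calculated from ERα/internal-reference grayscale ratios relative to control.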

[2] = system: T-47D cells; assay: Inhibition of cell proliferation in T-47D cells (CCK-8); details: 6 days treatment, CCK-8 cell viability
Procedure, shortened: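 T-47D cells (3,000/well) in RPMI-1640 with 10% FBS were exposed to a concentration range of PROTAC compounds for 6 days at 37 °C, 5% CO2. Viability read by CCK-8; IC50 fitted from inhibition rate.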

[3] = system: MCF-7 cells; assay: Inhibition of cell proliferation in MCF-7 cells (CCK-8); details: MCF-7 cell proliferation, 6 days treatment
Procedure, shortened: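 MCF-7 cells, 800 per well in DMEM plus 10% FBS, exposed to graded PROTAC concentrations for 6 days at 37 °C, 5% CO2. Viability by CCK-8; IC50 fitted from inhibition rates.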

[4] = molecular target: T1, ERα; assay: ERα degradation in MCF-7 cells (Western blot); set-up: host or cells: MCF-7; details: 4 hours
Procedure, shortened: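 MCF-7 cells treated 4 h at 37 °C with compound at 0.15–1000 nM final. ERα in lysates measured by Western blot (20 µg protein), normalized to an internal reference protein; degradation rate calculated against control.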

IC50 [3] | Compound | Degradation rate of ERα in T-47D cells (%) ([1]; 1nM) | Degradation rate of ERα in T-47D cells (%) ([1]; 10nM) | IC50 [2] | Degradation rate of ERα in MCF-7 cells (%) ([4]; 1nM) | Degradation rate of ERα in MCF-7 cells (%) ([4]; 10nM) | IC50 ([2]; Homo sapiens, T47D, 144 h) | IC50 ([3]; Homo sapiens, MCF7, 144 h)
731 nM | COc1cc2c(cc1C(=O)N[C@H]1CCC(=O)NC1=O)OCC[C@H]1CN(CC3CCC(OC4CCN(c5ccc([C@@H]6c7ccc(O)cc7CC[C@@H]6c6ccccc6)cc5)CC4)CC3)CCN21 (stereo partly drawn) [ER-P-46, (S)-N-((S)-2,6-dioxopiperidin-3-yl)-3-(((1S,4R)-4-((1-(4-((1R,2S)-6-hydroxy-2-phenyl-1,2,3,4-tetrahydronaphthalen-1-yl)phenyl)piperidin-4-yl)oxy)cyclohexyl)methyl)-10-methoxy-2,3,4,4a,5,6-hexahydro-1H-benzo [b]pyrazino[1,2-d][1,4]oxazepine-9-carboxamide] | 35% | 55% | 1.17 nM | 6% | 36% |  | 
 | O=C1CCC(Nc2ccc3c(c2)OCC32CCN(C[C@H]3CC[C@@H](OC4CCN(c5ccc([C@@H]6c7ccc(O)cc7CC[C@@H]6c6ccccc6)cc5)CC4)CC3)CC2)C(=O)N1 (stereo partly drawn) [ER-P-31, 3-((1'-(((1S,4s)-4-((1-(4-((1R,2S)-6-hydroxy-2-phenyl-1,2,3,4-tetrahydronaphthalen-1-yl)phenyl)piperidin-4-yl)oxy)cyclohexyl)methyl)-2H-spiro[benzofuran-3,4'-piperidin]-6-yl)amino)piperidine-2,6-dione] | 26% | 79% |  | 29% | 71% | 2.71 nM | 54.8 nM
 | O=C1CCC(N2Cc3c(ccc4c3OCC43CCC4(CCN(C5CC6(CCN(c7ccc([C@@H]8c9ccc(O)cc9CC[C@@H]8c8ccccc8)cc7)CC6)C5)CC4)CC3)C2=O)C(=O)N1 (stereo partly drawn) [ER-P-3] | 28% | 73% |  | 25% | 69% | 3.02 nM | < 0.256 nM
 | Cn1c(=O)n(C2CCC(=O)NC2=O)c2cc3c(cc21)C1(CCN(CC2CCC4(CC2)CCN(c2ccc([C@@H]5c6ccc(O)cc6CC[C@@H]5c5ccccc5)cc2)CC4)CC1)CO3 (stereo partly drawn) [ER-P-62] | 13% | 52% |  | 14% | 39% | 2.64 nM | 183 nM
805 nM | O=C1CC[C@H](NC(=O)c2ccc3c(c2)OCC[C@H]2CN(CC4CCC(OC5CCN(c6ccc([C@@H]7c8ccc(O)cc8CC[C@@H]7c7ccccc7)cc6)CC5)CC4)CCN32)C(=O)N1 (stereo partly drawn) [ER-P-44, (S)-N-((S)-2,6-dioxopiperidin-3-yl)-3-((4-((1-(4-((1R,2S)-6-hydroxy-2-phenyl-1,2,3,4-tetrahydronaphthalen-1-yl)phenyl)piperidin-4-yl)oxy)cyclohexyl)methyl)-2,3,4,4a,5,6-hexahydro-1H-benzo[b]pyrazino[1,2-d][1,4]oxazepine-9-carboxamide] | -29% | 30% |  | 10% | 39% | 1.26 nM | 

Compound | IC50 [3] | Degradation rate of ERα in T-47D cells (%) ([1]; 1nM) | Degradation rate of ERα in T-47D cells (%) ([1]; 10nM) | IC50 [2] | Degradation rate of ERα in MCF-7 cells (%) ([4]; 1nM) | Degradation rate of ERα in MCF-7 cells (%) ([4]; 10nM) | IC50 ([2]; Homo sapiens, T47D, 144 h) | IC50 ([3]; Homo sapiens, MCF7, 144 h)
O=C1CCC(Nc2ccc3c(c2)COC[C@H]2CN(CC4CCC(OC5CCN(c6ccc([C@@H]7c8ccc(O)cc8CC[C@@H]7c7ccccc7)cc6)CC5)CC4)CCN32)C(=O)N1 (single isomer, unassigned) [ER-P-51] | 1260 nM | 14% | 12% | 74.3 nM | 5% | 1% |  | 
